{"source": "paper PMC10224444", "about": "“Novel Perspectives on the Design and Development of a Long-Acting Subcutaneous Raltegravir Injection for Treatment of HIV—In Vitro and In Vivo Evaluation” (Pharmaceutics, 2023)", "key": {"[1]": {"parameters": "method as in PMID 33979164", "conditions": "cited from earlier work"}, "[2]": {"parameters": "method as in PMID 33979164", "conditions": "cited from earlier work", "remark": "listed apart in the source"}, "[3]": {"parameters": "method as in PMID 33979164", "conditions": "pH 7.0, over 5 h; cited from earlier work"}, "[4]": {"parameters": "method as in PMID 36678931", "conditions": "pH 6.5, over 6 d; cited from earlier work"}, "[5]": {"parameters": "method as in PMID 18321239", "conditions": "cited from earlier work"}, "[6]": {"parameters": "method as in PMID 23515248", "conditions": "cited from earlier work"}, "[7]": {"assay": "Pharmacokinetic study after single SC injection in BALB/c mice", "format": "in vivo", "conditions": "mouse, in vivo, single SC 30 mg/kg", "procedure": "The pharmacokinetic profile of prodrug 25 was evaluated in mice, in a study undertaken at WuXi AppTec. Prodrug 25 was dissolved in a sterile vehicle of DMSO/Solutol HS15/water (10:10:80) to give a clear solution with a final concentration of 6 mg/mL. The same procedure was used to prepare a 6 mg/mL solution of RAL as a control. Six male BALB/c mice were used, each weighing 18–25 g and aged between 7–9 weeks (three per group). A single 30 mg/kg dose of prodrug 25 was administered to each animal in the treatment group (subcutaneously, in the thoracic region). Similarly, RAL (30 mg/kg) was administered to each animal in the control group. Blood samples were taken at the time points indicated below, up to the experiment endpoint (96 h).\nFor each animal, blood samples (30 μL each) were collected from the submandibular or saphenous vein over a period of 96 h, at the following time points: zero/pre-dose; then 0.25, 0.5, 1, 2, 3, 4, 5, 6, 24, 48, and 96 h. All samples were transferred into pre-chilled commercial K2EDTA tubes and placed on wet ice until processing for plasma, which was obtained by centrifugation at 4 °C and 3200× g for 10 min, within 30 min of sampling. The plasma samples were transferred to polypropylene tubes, snap-frozen on dry ice, and kept at −70 ± 10 °C until LC-MS/MS analysis.\nAn LC-MS/MS method was developed to measure the concentrations of prodrug 25 and RAL in the biological matrix. Two mobile phases were used: mobile phase A (0.025% NH4OH and 2 mM NH4OAc in 95:5 v/v water/MeCN) and mobile phase B (0.025% NH4OH and 2 mM NH4OAc in 5:95 v/v water/MeCN). A UPLC method was performed using an LC-MS/MS-BM Triple Quad 6500 plus system with an ACQUITY UPLC BEH C18 1.7 μm column (2.1 × 50 mm) at a flow rate of 0.65 mL/min. The assay time was 2.5 min, and the solvent B composition was as follows: 10–100% (0.2–1.4 min), 30% (1.41–1.7 min), 95% (2.0–2.4 min), and 10% (2.41–2.5 min). The retention times for the prodrug, RAL and the internal standards (tolbutamide and verapamil) were 0.76, 1.04, 0.66, and 0.97 min, respectively. Quantification was performed by monitoring the transition of m/z 835.3 [M+H]^+ to 457.2 for prodrug 25, representing the cyclisation of the linker with the amidic RAL such as in side-product 22; whereas for RAL, the transition m/z 445.2 [M+H]^+ to 361.2 was followed, representing the loss of the 2-methyl-1,3,4-oxadiazole moiety as the main fragmentation pathway. For the internal standards, the m/z transition from 455.2 [M+H]^+ to 164.9 was used for verapamil (corresponding to formation of the verapamil fragment [CH2CH2-(3,4-dimethoxy phenyl)]^+), and for tolbutamide, the transition of m/z of 271.1 [M+H]^+ to 155.1 was used, representing formation of the [CH3-Ph-SO2]^+ fragment. […] The method was linear over the measured standard concentrations for 25 and RAL. The mean plasma concentration was determined for 25 and RAL (as metabolite or control) at each sampling time point. Pharmacokinetic parameters were then calculated by non-compartmental analysis of plasma concentration/time profiles using the Phoenix WinNonlin 6.3 software. The computed parameters were as follows: peak plasma concentration (Cmax); the time over which the initial concentration is reduced to half (t½); area under the plasma concentration versus time curve from time zero to 96 h (AUC 0–96 h); and mean residence time from time zero to 96 h (MRT 0–96 h).\nSince in vitro models are not fully predictive of in vivo pharmacokinetics, especially for prodrugs, assessment of these characteristics still relies on in vivo studies. Therefore, the pharmacokinetic profile of prodrug 25 was evaluated in mice. Compound 25 and the control (RAL) were dissolved in DMSO/Solutol HS15/water (10:10:80). For a single SC injection of 25 (30 mg/kg) in BALB/c mice (n = 3), the plasma concentrations of prodrug and released RAL were measured at the following time points: zero/pre-dose; then 0.25, 0.5, 1, 2, 3, 4, 5, 6, 24, 48, and 96 h. […]"}, "[8]": {"conditions": "plasma level of the dosed compound, male BALB/c mice, n = 3"}}}
{"smiles": "CNCCCOC(=O)OCOc1c(-c2ccc(Oc3ccc(OC(F)(F)F)cc3)cc2F)c(C)nc2cc(OC)c(Cl)cc12", "note": "[Compound 2]", "values": [{"measurement": "aqueous solubility compared with the parent compound", "setting": "[1]", "value": "enhanced"}, {"measurement": "oral bioavailability compared with the parent compound", "setting": "[2]", "value": "enhanced"}, {"measurement": "payload released over 5 h", "setting": "[3]", "value": "> 55", "unit": "%"}]}
{"smiles": "C#CCCCNCCCCOC(=O)OCOc1ccc(N)cc1C(=O)O", "note": "[Compound 4]", "values": [{"measurement": "release of mesalamine over 6 d", "setting": "[4]", "value": 92, "unit": "%"}]}
{"smiles": "Cc1nnc(C(=O)NC(C)(C)c2nc(C(=O)NCc3ccc(F)cc3)c(O)c(=O)n2C)o1", "note": "[RAL, raltegravir]", "values": [{"measurement": "half-life (t½)", "setting": "[5]", "value": "420 to 720", "unit": "min"}, {"measurement": "pKa", "setting": "[6]", "value": 6.7}, {"measurement": "concentration at 6 h", "setting": "[7]; male, RAL control, BALB/c mice, 6 h, read-out: plasma concentration remaining after 6 h", "value": 10.7, "unit": "ng/mL"}, {"measurement": "Cmax", "setting": "[7]; [8]", "value": 6230, "unit": "ng/mL"}, {"measurement": "Tmax", "setting": "[7]; [8]", "value": 19.8, "unit": "min"}, {"measurement": "AUC(0-t)", "setting": "[7]; plasma level of the dosed compound, male BALB/c mice, n = 3, read-out: AUC 0–96 h", "value": 9890, "unit": "ng·h/mL"}, {"measurement": "half-life", "setting": "[7]; plasma level of the dosed compound, male BALB/c mice, n = 3, read-out: t½ (converted)", "value": 45.6, "unit": "min"}]}
